Source: a melting point compilation (Tetko et al.; mined from patent text by program, amines drawn as free bases though some values may be those of a salt)

SMILES | melting point
Cc1cc(C(=O)NC2CC2)ccc1N1CCN(C(=O)OC(C)(C)C)CC1 | 111 to 115 °C
COC(=O)C1CC(C#N)(c2ccc(OC)c3c2OCCO3)CCC1=O (stereo unspecified) | 129 to 132 °C
COc1ccc(CNc2nnc(Cl)c3cc(Cl)ccc23)cc1Cl | 168 to 170 °C
Cc1cc(Cl)ncc1C(=O)O | 170 to 172 °C
COc1cc2c(cc1OC)-c1ccc(OC)c(OC)c1C2=Cc1ccnc2ccccc12 | 203 to 205 °C
Oc1ccc(Cl)cc1C(O)(c1ccccc1)C1CCCCC1 (stereo unspecified) | 170 °C
CCOC(=O)C(=NOC)c1nnc(C)s1 | 79 to 81 °C
Cc1ccc(C)c(NC(=S)N2CCC(c3nc(C4=NOC(c5ccccc5)C4)cs3)CC2)c1 (stereo unspecified) | 120 to 123 °C
CC(=O)N1C(C)(C)CC(N2CCCCCC2=O)CC1(C)C | 104 to 108 °C
CCOC(=O)C1CCC(c2ccc(Cl)cc2)n2c(=O)n(CCCl)c(=O)n21 (stereo unspecified) | 111 to 112 °C
Brc1c(C2=NOCCS2)sc2ccccc12 | 80 to 85 °C
CS(=O)(=O)CS(C)(=O)=O | 146 °C
CCOc1sc(C(=O)N2CCCC2)c2c1C(=O)C(=CO)C(C)(C)C2 | 140 to 142 °C
COC(=O)/C(=N\OC1(C(=O)O)CCC1)c1ccco1 | 133 to 134 °C
CC(=O)CC(=O)Nc1nc(C)c(C)s1 | 191 to 193 °C
Fc1ccc2c(c1)CC(n1cc[nH]c1=S)CC2 (stereo unspecified) | 215 to 217 °C
Cc1cc(C)c2nc(C3CC3)n(-c3ccc(C(C(=O)O)C4CCCC4)cc3)c2n1 (stereo unspecified) | 180 °C
CCCCN(CCCC)c1ccc(N=O)cc1 | 122 to 124 °C
CNC1(C)CN(c2cc3c(cc2F)c(=O)c(C(=O)O)cn3C(C)(C)C)C1 | 251 to 253 °C
CCCc1c(C(C)C)nc(C(C)C)c(CO)c1-c1ccc(F)cc1 | 49 to 54 °C
CCCCCCc1ccc(C2CN=C(NC(=O)OC)N2C)cc1 (stereo unspecified) | 115 to 116 °C
Cc1c(NC(=O)CC(C)(C)C)cc2c(c1C)OC(C)(C)C2c1ccccc1 (stereo unspecified) | 182 to 183 °C
COc1cc(NCCCCCCO)c2nccc(C)c2c1 | 97 to 99 °C
Nc1ccc(-c2noc(-c3cnn4c(C(F)F)cc(-c5ccc(C(F)(F)F)c(OCC(F)(F)F)c5)nc34)n2)cn1 | 285 °C
CCc1cn(C2CC(I)C(CO)O2)c(=O)[nH]c1=O (stereo unspecified) | 162 to 164 °C
CCC(C)Nc1cc(N2CCc3cc(OC)cc(Cl)c32)nc(C)n1 (stereo unspecified) | 102 to 105 °C

SMILES | melting point
O=CC12CC(c3ccccc31)c1ccccc12 | 102 °C
Cc1cc(C)cc(C(=O)c2c(C(C)C)c(=O)[nH]c(=O)n2C/C=C/CCl)c1 | 178 to 179 °C
COCc1cc(Cl)cc(C(=O)c2nc(OC)cc(OC)n2)c1[N+](=O)[O-] | 130 to 131 °C
CCCNCC(O)c1ccc(F)cc1 (stereo unspecified) | 58.6 to 78.8 °C
Clc1ccc(C2COCCS2)cc1Cl (stereo unspecified) | 65 to 68 °C
CC(C)Cn1c(CN2CCOCC2)nc2c(N)nc3c(c21)CCCC3 | 165 to 172 °C
Cc1ccc(-c2[nH]nc3c2Cc2ccccc2-3)cc1 | 250 to 252 °C
COc1cc(OC)nc(C2OC(=O)c3c(Cl)cccc32)n1 (stereo unspecified) | 148 to 149 °C
COc1cc2nc(N)nc(-c3ccc(I)cc3)c2cc1OC | 240 to 242 °C
Cc1ccc(CON2C(C)(C)CC(O)CC2(C)C)cc1 | 92.5 to 93 °C
O=C(O)CCCCc1c([N+](=O)[O-])cc(O)c(O)c1[N+](=O)[O-] | 135 to 139 °C
CC(C)C(C)(C)[Si](C)(C)Oc1ccc2c(c1)c(I)c1n2CCC1 | 97 to 98 °C
COc1ccccc(Br)c1=O | 74 to 75 °C
CN(O)C(=O)NCCc1ccc2c(c1)OCO2 | 99 to 100 °C
COC(=O)[C@@H]1COC(c2ncn3c2CN(C)C(=O)c2sccc2-3)=N1 | 215 to 217 °C
COP(=S)(OC)Oc1nc(F)c(Cl)cc1Cl | < 20 °C
CCCCCCCCCCCCCCOc1cccc(CBr)c1 | 34 to 35 °C
CS(=O)(=O)Oc1cc(CC(=O)O)on1 | 101 to 103 °C
CC(C#Cc1cccc(Oc2ccsc2)c1)N(O)C(N)=O (stereo unspecified) | 93 to 95 °C
CS(=O)(=O)ON=C(C#N)C=Cc1ccccc1 | 127 to 129 °C
Cc1cc(S(=O)(=O)Cl)c(C)c(S(=O)(=O)Cl)c1 | 24 to 27 °C
NS(=O)(=O)C=Cc1ccc(Cl)c(Cl)c1 | 127 to 130 °C
c1ccc(C2=NN=C(N3CCSCC3)SC2)cc1 | 160 °C
CC(=O)NCCc1ccc(C=O)cc1 | 81 to 83 °C
OC(CNC1=NCCCN1)c1ccccc1 (stereo unspecified) | 188 °C
CCOC(=O)N1CC[C@@H](O)[C@H](c2ccccc2)C1 (relative stereo) | 49.5 to 58 °C

The next lines start with the values.

melting point | SMILES
137 °C | COc1cc(CN2C(=O)CCC2=O)cc(OC)c1-c1ccc(C[C@H](NC(=O)c2c(Cl)cccc2Cl)C(=O)O)cc1
255 to 257 °C | CCOc1ccc(C(=O)C2=C(O)C(=O)N(c3ccc(C)nn3)C2c2ccc(OC(F)(F)F)cc2)cc1 (stereo unspecified)
117 to 118 °C | CN1CCN(C(=N)Nc2ccccc2-c2cccc(F)c2)CC1
173 to 174 °C | CNc1cc(CC(C#N)=CNc2ccccc2)cc(N(C)C)c1Cl
220 to 222 °C | COc1ccn2nc(-c3ccccc3F)c(-c3ccc(=O)n(C)n3)c2c1
132 to 134 °C | O=C(OCC(Cl)(Cl)Cl)N1CCC(=C2c3ccccc3Oc3ccccc32)CC1
178 to 180 °C | CCN(C(=O)c1ccccc1C(=O)c1ccc(Cl)cc1)[C@@H]1CCCC[C@@H]1NS(=O)(=O)c1ccc(C)cc1 (relative stereo)
69 to 70 °C | COc1ccc(CCN2COc3c(cccc3OC)C2)cc1
171 to 172 °C | COC(=O)C1=NN(c2ccccc2)C(C(=O)OC)=NN1c1ccccc1
146 to 148 °C | CC(C)c1ccc(-n2nc(Cl)cc2-c2ccc(S(C)(=O)=O)cc2)cc1
120 to 121 °C | O=C(NCc1ccccc1Cl)c1ccc2cnccc2n1
60 to 62 °C | CCCCc1oc2ccc(C(=O)OC)cc2c1C(=O)c1ccc(CCN=[N+]=[N-])cc1
107 to 109 °C | CCCCc1nc(CO)c(C(=O)ON2C(=O)CCC2=O)n1Cc1ccc(-c2ccccc2C(=O)OC(C)(C)C)cc1
88 to 89 °C | O=C(Nc1ccc(Oc2ccnc(NCCN3CCCCC3)n2)c2ccccc12)c1cc(F)cc(N2CCCCC2)c1
165 to 167 °C | Cc1cccc(C2=C(c3ccc(S(C)(=O)=O)cc3)CC(CN(C)C)C2O)c1 (stereo unspecified)
198 to 202 °C | O=C(Cn1c(-c2ccccc2)ncc(NC(=O)OCc2ccccc2)c1=O)NC(Cc1ccccc1)C(O)C(F)(F)F (stereo unspecified)
229 to 248 °C | O=C(O)c1ccc2c(c1)S(=O)(=O)c1ccccc1C2
172 to 173 °C | CCOC(=O)c1cnc2ccn(Cc3ccccc3)n2c1=O
155 to 156 °C | COc1cccc(-c2n[nH]c(-c3ccccc3CO)n2)c1
160 to 162 °C | CC(=O)NCCCCNc1ccc(NCCN(C)C)c2c1C(=O)c1ccccc1C2=O
164 to 165 °C | Cc1ccc(OC2COc3ccc(OCc4ccc5cc(F)ccc5n4)cc3C2O)cn1 (stereo unspecified)
113 °C | NC(=O)COc1cccc(CCNS(=O)(=O)c2ccc(Cl)cc2)c1
70 to 72 °C | CC(=O)N1C(=O)N(COCc2ccccc2)C(=O)C12c1ccccc1N(CC(C)C)C(=O)N2C (stereo unspecified)
106 to 107 °C | CC(C)C[C@H](NC(=O)OCc1ccccc1)C(=O)N[C@@H](Cc1cccs1)C(=O)CSCc1ccco1
279 to 280 °C | COc1ccc(C(=O)Nc2ccc(C(=O)NCc3ccccc3)cc2)cc1C12CC3CC(CC(C3)C1)C2

melting point | SMILES
109 to 110 °C | O=C(O)c1ccc(OCc2ccc(F)cc2)cc1
167 to 170 °C | Cc1onc(NS(=O)(=O)c2cccc3ccccc23)c1Br
114 to 115 °C | CCc1cccc(CC(=O)O)c1OCCCc1cn(-c2ccc(Cl)cn2)nc1C(CC)CC
171 to 172 °C | COc1ccccc1Oc1cccc2c1OC(=O)C2
202 to 204 °C | O=C(CC(=O)c1ccccc1)Nc1ccccc1NC(=O)CC(=O)c1ccccc1
217 to 220 °C | Cc1noc(-c2cccc(NC(=O)Oc3ccc([N+](=O)[O-])cc3)c2)n1
199 to 203 °C | CC(C)(C)c1ccc(N(CCCOc2ccc(C(=O)O)cc2)C(=O)c2ccc3c(c2)OCO3)cc1
155 to 157 °C | O=C1c2ccccc2C(=O)N1OC/C=C/C=C/c1ccc(F)cc1
174 to 176 °C | O=C(Nc1ccc(Cl)cc1)NC1CCN(C(=O)Cc2c[nH]cn2)CC1
70.8 to 71.7 °C | COc1ccc(NCCNC(=O)c2ccc(OCC=C(C)CCC=C(C)C)cc2)nc1
116 °C | CCCC[C@H](NC(=O)[C@H](CC(C)C)NC(=O)c1c(F)cccc1F)C(=O)CSCc1ccco1
201 to 204 °C | O=C(O)Cc1ccc(NC(=O)C(COc2ccccc2)NS(=O)(=O)c2ccc(Br)cc2)cc1 (racemic)
144 °C | CC1(O)CC(=O)OC(CCc2ccc(OCc3ccc(F)cc3)cc2)C1 (stereo unspecified)
104 to 106 °C | CC(O)(C(=O)O)c1cccc(OCc2ccc3ccccc3c2)c1 (single isomer, unassigned; (-))
123 to 124 °C | Cc1nc(N2CCC(NCc3ccc(F)cc3)C2=O)sc1C(=O)NCc1ccc(F)cc1 (stereo unspecified)
143 to 145 °C | O=C(Nc1nnn(C(F)F)n1)C(c1ccccc1)c1ccccc1
39 to 40 °C | CC(C)c1cc(O)ccc1OCc1ccccc1
232 to 233 °C | O=C(Nc1cccnc1)N1CCN(c2nccc(-c3cccc(F)c3F)n2)CC1
107 °C | COc1ccc(C[C@H](NC(=O)OCc2ccccc2)C(=O)CCl)cc1
150 to 151 °C | CC1CCN(Cc2ccc(CCC(=O)Nc3ccc(-c4ccc(Cl)cc4)cc3)cc2)CC1
74 to 75 °C | COc1ccc(C(C)(C)C)c(O)c1C(=O)Oc1ccccc1
217 to 218 °C | O=C(Cc1c(-c2ccccc2)c2cc3c(cc2oc1=O)C=CC3)Nc1ccc(F)cc1C(F)(F)F
118 to 120 °C | Cc1c(-c2ccccc2)oc2c(C(=O)NCCCN3CCN(c4ccccc4O)CC3)cccc2c1=O
164 °C | COC(=O)c1scc(-c2ccccc2)c1-c1ccc(S(C)=O)c(F)c1 (stereo unspecified)
